Laboratory results as given in paper PMC9820208, “A Chloroplast-Localized Glucose-6-Phosphate Dehydrogenase Positively Regulates Stripe Rust Resistance in Wheat” (International Journal of Molecular Sciences, 2022).

Tested on: T1, TaG6PDH2 (TaG6PDH2-2D)
T1 construct: CDS in pET15b-sumo, E. coli BL21 (DE3), 6xHis and SUMO tags, about 75 kDa on gel; His-Trap FF purified fusion
Assay: G6PDH activity, double-reciprocal plot ([…]/V vs. […]/[G6P])
Type: biochemical, Triticum aestivum
Details: purified His-SUMO fusion; assay conditions only by reference; read-out: KmG6P

Structure (SMILES): O=P(O)(O)OC[C@H]1OC(O)[C@H](O)[C@@H](O)[C@@H]1O (stereo partly shown) [G6P, glucose-6-phosphate]
- Km: 1980 µM
